According to the supplement of paper PMC11061612:

Tests used:
Assay in all cases: Bliss excess, mean over the matrix (fraction); higher = more synergy
[1] = tested on: A673 (Ewing's Sarcoma)
In short: (§1)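 Cell lines grown in DMEM/F12 or RPMI with 10% FBS were plated in 1536-well plates and held 24 hours at 37°C, 5% CO2 before 72 hours of exposure to two-drug dose matrices, with DMSO typically at 0.2%. CellTiter-Glo 2.0 luminescence gave viability, which was converted to inhibition. Vehicle wells were set to 0 and blank wells to 1. Combination Emax is the second-highest inhibition in the matrix, and Bliss excess is the observed combination effect minus the expected EA + EB − EA·EB, where EA and EB are the single-agent effects.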

[2] = tested on: LOXIMVI (Melanoma)
In short: as §1

[3] = tested on: MPP-89 (Mesothelioma)
In short: as §1

[4] = tested on: BE-13 (T-Lymphoblastic Leukemia)
In short: as §1

[5] = tested on: SW1573 (Lung Adenocarcinoma)
In short: as §1

[6] = tested on: WSU-NHL (B-Cell Non-Hodgkin's Lymphoma)
In short: as §1

[7] = tested on: SW1710 (Bladder Carcinoma)
In short: as §1

[8] = tested on: ESS-1 (Other Solid Carcinomas)
In short: as §1

[9] = tested on: NCI-H524 (Small Cell Lung Carcinoma)
In short: as §1

[10] = tested on: OVCAR-5 (Ovarian Carcinoma)
In short: as §1

[11] = tested on: LCLC-97TM1 (Non-Small Cell Lung Carcinoma)
In short: as §1

[12] = tested on: Hs-746T (Gastric Carcinoma)
In short: as §1

[13] = tested on: OV-56 (Ovarian Carcinoma)
In short: as §1

[14] = tested on: OE21 (Esophageal Squamous Cell Carcinoma)
In short: as §1

[15] = tested on: HuH-7 (Hepatocellular Carcinoma)
In short: as §1

[16] = tested on: CAL-33 (Oral Cavity Carcinoma)
In short: as §1

[17] = tested on: FTC-133 (Thyroid Gland Carcinoma)
In short: as §1

[18] = tested on: KS-1 (Glioblastoma)
In short: as §1

[19] = tested on: HuCCT1 (Biliary Tract Carcinoma)
In short: as §1

[20] = tested on: L-428 (Hodgkin's Lymphoma)
In short: as §1

Row | Compound | Bliss excess [1] | Bliss excess [2] | Bliss excess [3] | Bliss excess [4] | Bliss excess [5] | Bliss excess [6] | Bliss excess [7] | Bliss excess [8] | Bliss excess [9] | Bliss excess [10] | Bliss excess [11] | Bliss excess [12] | Bliss excess [13] | Bliss excess [14] | Bliss excess [15] | Bliss excess [16] | Bliss excess [17] | Bliss excess [18] | Bliss excess [19] | Bliss excess [20]
1 | COc1cccc2c1C(=O)c1c(O)c3c(c(O)c1C2=O)C[C@@](O)(C(=O)CO)C[C@@H]3O[C@H]1C[C@H](N)[C@H](O)[C@H](C)O1 [Doxorubicin] + Cc1cc2ncnn2cc1Nc1ncc2c(n1)n(C1CCOCC1)c(=O)n2C [AZD7648] (first compound max 1 µM, 7x7, partner max 10 µM) | 0.0816 | 0.0582 | 0.0691 | 0.0553 | -0.0042 | 0.0404 | 0.0569 | 0.0112 | 0.145 | -0.0058 | 0.0332 | 0.0464 | 0.0345 | 0.0511 | -0.0513 | 0.0998 | 0.0917 | 0.0176 | -0.0073 | 0.0276
2 | CC1(C)CCC(CN2CCN(c3ccc(C(=O)NS(=O)(=O)c4ccc(NCC5CCOCC5)c([N+](=O)[O-])c4)c(Oc4cnc5[nH]ccc5c4)c3)CC2)=C(c2ccc(Cl)cc2)C1 [Venetoclax] + C1CN(CCC1(C(=O)N[C@@H](CCO)C2=CC=C(C=C2)Cl)N)C3=NC=NC4=C3C=CN4 [Capivasertib] (first compound max 1 µM, 7x7, partner max 3 µM) | -0.0551 | -0.0142 | -0.0361 | -0.0684 | -0.0428 | -0.0282 | -0.0896 | -0.0498 | -0.0624 | -0.0649 | -0.033 | -0.0705 | -0.0323 | -0.009 | -0.0537 | 0.0084 | -0.0473 | -0.0161 | -0.0734 | -0.0577
3 | COc1cccc(OCCCN)c1-c1cc(Nc2cnc(C#N)cn2)n[nH]1 [Prexasertib] + C[C@@H]1COCCN1C2=NC(=NC(=C2)C3(CC3)[S@](=N)(=O)C)C4=C5C=CNC5=NC=C4 [AZD6738] (first compound max 1 µM, 7x7, partner max 10 µM) | -0.014 | -0.0165 | -0.0232 | -0.0018 | -0.0066 | 0.0077 | 0.0092 | 0.0056 | -0.0122 | 0.0185 | -0.0351 | -0.033 | 0.0148 | 0.0084 | 0.0392 | 0.0296 | 0.0016 | -0.0298 | -0.0108 | -0.0418
4 | C[C@@H]1COCCN1c1cc(C2([S@](C)(=N)=O)CC2)nc(-c2ccnc3[nH]ccc23)n1 [AZD6738] + O=C(c1cc(Cc2n[nH]c(=O)c3ccccc23)ccc1F)N1CCN(C(=O)C2CC2)CC1 [Olaparib] (first compound max 10 µM, 7x7, partner max 10 µM) | 0.0381 | -0.0956 | 0.0055 | 0.0278 | -0.0044 | -0.0379 | -0.0498 | 0.0107 | 0.0196 | -0.0994 | -0.0539 | 0.0101 | -0.0159 | -0.007 | 0.0569 | 0.0047 | -0.0401 | 0 | -0.0264 | 0.0227
5 | CC1(C)CCC(CN2CCN(c3ccc(C(=O)NS(=O)(=O)c4ccc(NCC5CCOCC5)c([N+](=O)[O-])c4)c(Oc4cnc5[nH]ccc5c4)c3)CC2)=C(c2ccc(Cl)cc2)C1 [Venetoclax] + CN(C)CCCOc1ccc(-c2ccc3ncc4c(c3c2)n(C2CCOCC2)c(=O)n4C)cn1 [AZD0156] (first compound max 1 µM, 7x7, partner max 1 µM) | 0.0265 | 0.0539 | -0.0182 | 0.0084 | -0.0553 | -0.0402 | -0.0264 | -0.0515 | 0.0028 | -0.0195 | -0.0466 | -0.0043 | 0.0022 | -0.0165 | 0.0028 | -0.0064 | 0.0019 | -0.007 | -0.002 | -0.0057
6 | CN(C)CCCOc1ccc(-c2ccc3ncc4c(c3c2)n(C2CCOCC2)c(=O)n4C)cn1 [AZD0156] + O=C(c1cc(Cc2n[nH]c(=O)c3ccccc23)ccc1F)N1CCN(C(=O)C2CC2)CC1 [Olaparib] (first compound max 3 µM, partner max 3 µM) | 0.16 | 0.0317 | -0.0547 | 0.0894 | -0.0002 | 0.403 | -0.0233 | 0.0655 | 0.179 | -0.0123 | -0.0124 | 0.0802 | -0.0449 | -0.0006 | -0.0107 | 0.0741 | – | 0.0259 | -0.0012 | -0.0116
7 | Cc1c2c(nn1C)CSCc1cc(n(C)n1)CSc1cc(c3ccccc3c1)OCCCc1c(C(=O)O)n(C)c3c-2c(Cl)ccc13 [AZD5991] + C1CN(CCC1(C(=O)N[C@@H](CCO)C2=CC=C(C=C2)Cl)N)C3=NC=NC4=C3C=CN4 [Capivasertib] (first compound max 1 µM, 7x7, partner max 3 µM) | 0.0001 | -0.0067 | 0.0003 | 0.0349 | -0.0587 | -0.0777 | -0.0407 | -0.0113 | 0.014 | -0.0337 | -0.0061 | 0.0327 | -0.0006 | 0.0577 | -0.0116 | 0.0067 | 0.0062 | -0.0181 | -0.0405 | -0.0007
8 | Cc1c2c(nn1C)CSCc1cc(n(C)n1)CSc1cc(c3ccccc3c1)OCCCc1c(C(=O)O)n(C)c3c-2c(Cl)ccc13 [AZD5991] + CCN(CCO)CCCOc1ccc2c(Nc3cc(CC(=O)Nc4cccc(F)c4)[nH]n3)ncnc2c1 [AZD2811] (first compound max 1 µM, 7x7, partner max 1 µM) | 0.0886 | 0.0212 | 0.0367 | 0.0225 | 0.0108 | -0.0206 | 0.0088 | -0.0014 | -0.0016 | -0.0434 | 0.0885 | -0.0477 | 0.0421 | 0.0345 | 0.0109 | 0.0153 | 0.0074 | -0.0459 | 0.0128 | 0.0712
9 | CC1(C)CCC(CN2CCN(c3ccc(C(=O)NS(=O)(=O)c4ccc(NCC5CCOCC5)c([N+](=O)[O-])c4)c(Oc4cnc5[nH]ccc5c4)c3)CC2)=C(c2ccc(Cl)cc2)C1 [Venetoclax] + CCN(CCO)CCCOc1ccc2c(Nc3cc(CC(=O)Nc4cccc(F)c4)[nH]n3)ncnc2c1 [AZD2811] (first compound max 1 µM, 7x7, partner max 1 µM) | 0.0295 | 0.0139 | -0.0093 | -0.0468 | -0.0575 | -0.0879 | 0.0032 | 0.0506 | -0.0074 | -0.0482 | -0.0053 | -0.0383 | 0.0214 | 0.0005 | -0.0133 | -0.0261 | 0.0192 | -0.0516 | -0.0062 | 0.0178
10 | CCN(CCO)CCCOc1ccc2c(Nc3cc(CC(=O)Nc4cccc(F)c4)[nH]n3)ncnc2c1 [AZD2811] + O=C(c1cc(Cc2n[nH]c(=O)c3ccccc23)ccc1F)N1CCN(C(=O)C2CC2)CC1 [Olaparib] (first compound max 1 µM, 7x7, partner max 10 µM) | -0.0906 | 0.0073 | -0.0334 | -0.0163 | 0.0123 | -0.0841 | 0.0073 | 0.021 | -0.0602 | -0.0048 | 0.0148 | -0.0553 | -0.0081 | 0.0043 | -0.072 | 0.0044 | -0.0174 | 0.0053 | -0.0187 | 0.0277
11 | NC1(C(=O)N[C@@H](CCO)c2ccc(Cl)cc2)CCN(c2ncnc3[nH]ccc23)CC1 [Capivasertib] + COc1nnc2ccc(N3CCC(c4ccc(OCCN5CCN(C)C(=O)[C@H]5C)cc4)CC3)nn12 [AZD5153] (first compound max 10 µM, 7x7, partner max 1 µM) | -0.0386 | 0.0133 | -0.0632 | -0.0281 | -0.0278 | -0.0923 | 0.0751 | 0.0342 | -0.0155 | 0.0138 | 0.0079 | 0.0169 | 0.0506 | 0.0333 | -0.0061 | 0.051 | 0.0923 | -0.0211 | 0.0113 | -0.0239
12 | Cc1c2c(nn1C)CSCc1cc(n(C)n1)CSc1cc(c3ccccc3c1)OCCCc1c(C(=O)O)n(C)c3c-2c(Cl)ccc13 [AZD5991] + C=CCn1c(=O)c2cnc(Nc3ccc(N4CCN(C)CC4)cc3)nc2n1-c1cccc(C(C)(C)O)n1 [AZD1775] (first compound max 1 µM, partner max 1 µM) | 0.0002 | -0.029 | -0.0732 | -0.0097 | -0.0337 | -0.0459 | -0.0257 | -0.0715 | -0.0274 | -0.0096 | -0.0141 | -0.0096 | 0.0126 | -0.0135 | -0.0259 | -0.0275 | 0.0172 | -0.0553 | 0.0676 | 0.0145
13 | Cc1c2c(nn1C)CSCc1cc(n(C)n1)CSc1cc(c3ccccc3c1)OCCCc1c(C(=O)O)n(C)c3c-2c(Cl)ccc13 [AZD5991] + CN(C)CCCOc1ccc(-c2ccc3ncc4c(c3c2)n(C2CCOCC2)c(=O)n4C)cn1 [AZD0156] (first compound max 1 µM, 7x7, partner max 1 µM) | 0.0293 | 0.0016 | – | -0.0285 | -0.0245 | -0.0375 | -0.0134 | 0.0027 | 0.0301 | -0.024 | -0.0018 | 0.0008 | -0.0276 | 0.0133 | 0.0316 | 0.0215 | -0.0105 | -0.0619 | -0.04 | 0.0294
14 | CN(CCO)CC[C@H](CSc1ccccc1)Nc1ccc(S(=O)(=O)NC(=O)c2ccc(N3CCC([C@@H](O)c4ccccc4-c4ccc(Cl)cc4)CC3)cc2)cc1S(=O)(=O)C(F)(F)F [AZD4320] + C=CCn1c(=O)c2cnc(Nc3ccc(N4CCN(C)CC4)cc3)nc2n1-c1cccc(C(C)(C)O)n1 [AZD1775] (first compound max 1 µM, partner max 1 µM) | 0.082 | 0.0203 | 0.0351 | 0.046 | 0.0152 | -0.0242 | -0.0047 | 0.002 | 0.055 | – | 0.0015 | -0.0054 | -0.0113 | – | 0.0346 | -0.0266 | 0.0341 | 0.0327 | -0.0514 | 0.0961
